{
  "source": "ChEMBL document CHEMBL1157527",
  "about": "(2008)",
  "data": [
    {"tested_on": "Candida albicans", "experiment": "Antifungal activity against Candida albicans; further: unit not given here", "assay_type": "functional", "values": [
      {"smiles": "CCCCCCC(C)(O)C[N+](C)(C)[BH2-]C#N", "note": "(stereo unspecified)", "p(1/MIC)": 3.344},
      {"smiles": "CCCCCCCCCCC[N+](C)(C)[BH-](Br)C#N", "note": "(stereo unspecified)", "p(1/MIC)": 1.69},
      {"smiles": "C[N+](C)([BH2-]C#N)CCCCCCCCCC[N+](C)(C)[BH2-]C#N", "p(1/MIC)": 2.611},
      {"smiles": "C=CCCCC[N+](C)(C)[BH2-]C#N", "p(1/MIC)": 1.973},
      {"smiles": "C[N+](C)(C)[B-](Br)(Br)C#N", "p(1/MIC)": 3.295},
      {"smiles": "CCCCCCCCCCC[N+](C)(C)[B-](Br)(Br)C#N", "p(1/MIC)": 1.591},
      {"smiles": "Cc1c(Cn2ccnc2)c2cc(Br)ccc2n1Cc1ccccc1F", "p(1/MIC)": 2.415},
      {"smiles": "Cc1c(Cn2ccnc2)c2cc(Br)ccc2n1Cc1ccc(F)cc1", "p(1/MIC)": 2.415},
      {"smiles": "Fc1ccc(Cn2cc(Cn3ccnc3)c3ccccc32)cc1", "p(1/MIC)": 1.117},
      {"smiles": "Cc1c(Cn2ccnc2)c2cc(Br)ccc2n1Cc1ccc(Cl)cc1", "p(1/MIC)": 1.902},
      {"smiles": "CC(C)C(c1cn(Cc2ccc(Cl)cc2)c2ccccc12)n1ccnc1", "note": "(stereo unspecified)", "p(1/MIC)": 1.138},
      {"smiles": "Clc1ccc(Cn2cc(Cn3ccnc3)c3ccccc32)c(Cl)c1", "p(1/MIC)": 1.147},
      {"smiles": "Cc1c(Cn2ccnc2)c2cc(Br)ccc2n1Cc1ccccc1Cl", "p(1/MIC)": 2.397},
      {"smiles": "CCCCCCCCCCCCCCOP(=O)(OCCC#N)OC(Cn1cncn1)(Cn1cncn1)c1ccc(F)cc1F", "note": "(stereo unspecified)", "p(1/MIC)": 3.17},
      {"smiles": "N#CCCOP(=O)(OCCCCCCCCCCCBr)OC(Cn1cncn1)(Cn1cncn1)c1ccc(F)cc1F", "note": "(stereo unspecified)", "p(1/MIC)": 3.392},
      {"smiles": "Cc1c(Cn2ccnc2)c2ccccc2n1Cc1ccc(F)cc1", "p(1/MIC)": 2.496},
      {"smiles": "Cc1c(C(C)n2ccnc2)c2ccccc2n1Cc1ccc(F)cc1", "note": "(stereo unspecified)", "p(1/MIC)": 1.819},
      {"smiles": "Cc1c(C(C)n2ccnc2)c2ccccc2n1Cc1ccc(Br)cc1", "note": "(stereo unspecified)", "p(1/MIC)": 2.404},
      {"smiles": "Cc1c(Cn2ccnc2)c2ccccc2n1Cc1cc(Cl)ccc1Cl", "p(1/MIC)": 1.432},
      {"smiles": "CCCCCCCCCCCCCCC[N+](C)(C)[BH2-]C#N", "p(1/MIC)": 1.724},
      {"smiles": "C[N+](C)(CCCCCCCCCC[N+](C)(C)[BH-](Br)C#N)[BH-](Br)C#N", "note": "(stereo unspecified)", "p(1/MIC)": 2.146},
      {"smiles": "C[N+](C)(CCCCCCCCCC[N+](C)(C)[B-](Br)(Br)C#N)[B-](Br)(Br)C#N", "p(1/MIC)": 2.017},
      {"smiles": "CCCCCCCCCCCCC[N+](C)(C)[BH2-]C#N", "p(1/MIC)": 1.763},
      {"smiles": "O=C(Nc1ccc2oc(-c3ccc(F)cc3)nc2c1)SCc1ccccc1", "p(1/MIC)": 1.813},
      {"smiles": "C[N+](C)([BH2-]C#N)CC1(O)C=CCC1", "note": "(stereo unspecified)", "p(1/MIC)": 3.142},
      {"smiles": "CC(Br)C(=O)OC(Cn1cncn1)(Cn1cncn1)c1ccc(F)cc1F", "note": "(stereo unspecified)", "p(1/MIC)": 3.172},
      {"smiles": "CCCC(Br)C(=O)OC(Cn1cncn1)(Cn1cncn1)c1ccc(F)cc1F", "note": "(stereo unspecified)", "p(1/MIC)": 2.768},
      {"smiles": "C[N+](C)([BH2-]C(=O)O)CCCCCCCCCC[N+](C)(C)[BH2-]C(=O)O", "p(1/MIC)": 2.274},
      {"smiles": "C[N+](C)([BH2-]C#N)CCCCCCCCCCCC[N+](C)(C)[BH2-]C#N", "p(1/MIC)": 1.982},
      {"smiles": "C[N+](C)([BH2-]C#N)CCCCCCCCCCCCCC[N+](C)(C)[BH2-]C#N", "p(1/MIC)": 1.634},
      {"smiles": "CCCCC(Br)C(=O)OC(Cn1cncn1)(Cn1cncn1)c1ccc(F)cc1F", "note": "(stereo unspecified)", "p(1/MIC)": 2.1},
      {"smiles": "O=C(Nc1ccc2oc(-c3ccccc3)nc2c1)OCc1ccc(Cl)cc1", "p(1/MIC)": 1.544},
      {"smiles": "O=C(Nc1ccc2oc(-c3ccccc3)nc2c1)SCc1ccccc1", "p(1/MIC)": 1.839},
      {"smiles": "O=C(Cc1ccc([N+](=O)[O-])cc1)Nc1ccc2oc(-c3ccc(F)cc3)nc2c1", "p(1/MIC)": 1.532},
      {"smiles": "O=C(CCc1ccccc1)Nc1ccc2oc(-c3ccc(F)cc3)nc2c1", "p(1/MIC)": 2.127},
      {"smiles": "O=C(Nc1ccc2oc(-c3ccc(F)cc3)nc2c1)OCc1ccc(Cl)cc1", "p(1/MIC)": 1.806},
      {"smiles": "O=C(Cc1ccccc1)Nc1ccc2oc(-c3ccc(F)cc3)nc2c1", "p(1/MIC)": 1.82},
      {"smiles": "O=C(OC(Cn1cncn1)(Cn1cncn1)c1ccc(F)cc1F)C(Br)CCCCCCCCCCBr", "note": "(stereo unspecified)", "p(1/MIC)": 1.342},
      {"smiles": "CN(C)c1ccc(-c2nc3cc(NC(=O)CCc4ccccc4)ccc3o2)cc1", "p(1/MIC)": 1.82},
      {"smiles": "CC(=O)Oc1ccccc1C(=O)OC(Cn1cncn1)(Cn1cncn1)c1ccc(F)cc1F", "p(1/MIC)": 3.413},
      {"smiles": "CN(C)c1ccc(-c2nc3cc(NC(=O)OCc4ccccc4)ccc3o2)cc1", "p(1/MIC)": 2.143},
      {"smiles": "CCCCCCCCCCC(Br)C(=O)OC(Cn1cncn1)(Cn1cncn1)c1ccc(F)cc1F", "note": "(stereo unspecified)", "p(1/MIC)": 3.412},
      {"smiles": "CN(C)c1ccc(-c2nc3cc(NC(=O)OCc4ccc(Cl)cc4)ccc3o2)cc1", "p(1/MIC)": 1.875},
      {"smiles": "CCCCCCCCCCCCCC(=O)OC(Cn1cncn1)(Cn1cncn1)c1ccc(F)cc1F", "p(1/MIC)": 3.143},
      {"smiles": "CCc1ccc(-c2nc3cc(NC(=O)OCc4ccccc4)ccc3o2)cc1", "p(1/MIC)": 1.477},
      {"smiles": "CCc1ccc(-c2nc3cc(NC(=O)OCc4ccc(Cl)cc4)ccc3o2)cc1", "p(1/MIC)": 1.792},
      {"smiles": "CCCCCCCCCCCOP(=O)(OC)OC(Cn1cncn1)(Cn1cncn1)c1ccc(F)cc1F", "note": "(stereo unspecified)", "p(1/MIC)": 3.138},
      {"smiles": "C=CCCCCCCCCCOP(=O)(OC)OC(Cn1cncn1)(Cn1cncn1)c1ccc(F)cc1F", "note": "(stereo unspecified)", "p(1/MIC)": 2.616},
      {"smiles": "Clc1ccc(Cn2cc(Cn3ccnc3)c3ccccc32)cc1", "p(1/MIC)": 1.924},
      {"smiles": "CCCCCCCCCCCOP(=O)(OCCC#N)OC(Cn1cncn1)(Cn1cncn1)c1ccc(F)cc1F", "note": "(stereo unspecified)", "p(1/MIC)": 2.494},
      {"smiles": "C=CCCCCCCCCCOP(=O)(OCCC#N)OC(Cn1cncn1)(Cn1cncn1)c1ccc(F)cc1F", "note": "(stereo unspecified)", "p(1/MIC)": 2.314},
      {"smiles": "C=CCCCCCCCCCOP(=O)(O)OC(Cn1cncn1)(Cn1cncn1)c1ccc(F)cc1F", "p(1/MIC)": 3.445},
      {"smiles": "CCCCCCCCCCCCCCOP(=O)(O)OC(Cn1cncn1)(Cn1cncn1)c1ccc(F)cc1F", "p(1/MIC)": 3.208},
      {"smiles": "CCCCCCCCOP(=O)(OCCC#N)OC(Cn1cncn1)(Cn1cncn1)c1ccc(F)cc1F", "note": "(stereo unspecified)", "p(1/MIC)": 3.091},
      {"smiles": "C=CCC[N+](C)(C)[BH2-]C#N", "p(1/MIC)": 2.672},
      {"smiles": "CCCCCCCCCC(O)C[N+](C)(C)[BH2-]C#N", "note": "(stereo unspecified)", "p(1/MIC)": 2.692},
      {"smiles": "CCCCCCCCCCC[N+](C)(C)[BH2-]C#N", "p(1/MIC)": 1.512},
      {"smiles": "C[N+](C)([BH2-]C#N)CC(O)c1ccccc1", "note": "(stereo unspecified)", "p(1/MIC)": 2.389},
      {"smiles": "CCCCCCCCCCC[N+](C)(C)[BH-](F)C#N", "note": "(stereo unspecified)", "p(1/MIC)": 1.806},
      {"smiles": "O=C(OCCCl)OC(Cn1cncn1)(Cn1cncn1)c1ccc(F)cc1F", "p(1/MIC)": 3.374},
      {"smiles": "CC(C)(C)C(c1cn(Cc2ccc(Cl)cc2)c2ccccc12)n1ccnc1", "note": "(stereo unspecified)", "p(1/MIC)": 1.208},
      {"smiles": "Fc1ccc(Cn2cc(Cn3ccnc3)c3ccccc32)c(F)c1", "p(1/MIC)": 1.695},
      {"smiles": "CCCCCCC(Br)C(=O)OC(Cn1cncn1)(Cn1cncn1)c1ccc(F)cc1F", "note": "(stereo unspecified)", "p(1/MIC)": 1.431},
      {"smiles": "Cc1c(Cn2ccnc2)c2ccccc2n1Cc1ccc(Cl)cc1", "p(1/MIC)": 0.474},
      {"smiles": "CC(=O)OC(Cn1cncn1)(Cn1cncn1)c1ccc(F)cc1F", "p(1/MIC)": 3.61},
      {"smiles": "CCc1ccc(-c2nc3cc(NC(=O)CCc4ccccc4)ccc3o2)cc1", "p(1/MIC)": 1.813},
      {"smiles": "CCc1ccc(-c2nc3cc(NC(=O)SCc4ccccc4)ccc3o2)cc1", "p(1/MIC)": 2.161},
      {"smiles": "O=C(Nc1ccc2oc(-c3ccccc3)nc2c1)OCc1ccccc1", "p(1/MIC)": 1.505},
      {"smiles": "O=C(Nc1ccc2oc(-c3ccc(F)cc3)nc2c1)c1ccccc1", "p(1/MIC)": 2.1},
      {"smiles": "CCC(Br)C(=O)OC(Cn1cncn1)(Cn1cncn1)c1ccc(F)cc1F", "note": "(stereo unspecified)", "p(1/MIC)": 2.846},
      {"smiles": "O=C(Nc1ccc2oc(-c3ccc(F)cc3)nc2c1)OCc1ccccc1", "p(1/MIC)": 1.785},
      {"smiles": "CCCCCCCCCCCOP(=O)(O)OC(Cn1cncn1)(Cn1cncn1)c1ccc(F)cc1F", "p(1/MIC)": 3.148},
      {"smiles": "CCCCCCCCOP(=O)(OC)OC(Cn1cncn1)(Cn1cncn1)c1ccc(F)cc1F", "note": "(stereo unspecified)", "p(1/MIC)": 2.962},
      {"smiles": "O=P(O)(OCCCCCCCCCCCBr)OC(Cn1cncn1)(Cn1cncn1)c1ccc(F)cc1F", "p(1/MIC)": 3.377},
      {"smiles": "CCCCCCCCCCCC[N+](C)(C)[BH2-]C#N", "note": "[(CYANOBORANYLIDENE)(DODECYL)DIMETHYLAMINE]", "p(1/MIC)": 1.785},
      {"smiles": "CC[N+](C)(C)[BH2-]C#N", "note": "[(CYANOBORANYLIDENE)(ETHYL)DIMETHYLAMINE]", "p(1/MIC)": 3.649},
      {"smiles": "CCCCCCCCC[N+](C)(C)[BH2-]C#N", "note": "[(CYANOBORANYLIDENE)DIMETHYLNONYLAMINE]", "p(1/MIC)": 2.176},
      {"smiles": "CCCCC[N+](C)(C)[BH2-]C#N", "note": "[(CYANOBORANYLIDENE)DIMETHYLPENTYLAMINE]", "p(1/MIC)": 2.909},
      {"smiles": "C[N+](C)([BH2-]C#N)C[Si](C)(C)C", "note": "[(CYANOBORANYLIDENE)DIMETHYL[(TRIMETHYLSILYL)METHYL]AMINE]", "p(1/MIC)": 3.468},
      {"smiles": "C[N+](C)(C)[BH2-]C#N", "note": "[(CYANOBORANYLIDENE)TRIMETHYLAMINE]", "p(1/MIC)": 3.708},
      {"smiles": "CCCC[N+](C)(C)[BH2-]C#N", "note": "[BUTYL(CYANOBORANYLIDENE)DIMETHYLAMINE]", "p(1/MIC)": 3.553}
    ]}
  ]
}
